Measured values taken from patent US7807368B2, “Cyclin-dependent kinase inhibitors as targets for opiod growth factor treatment” (priority 2006, dated 2010).

Legend:
SCC-1 cells [1] = assay: Growth curves of SCC-1 cells (viable cell counts, hemacytometer); assay type: cell-based, human; details: 10^-6 M OGF
Method: The SCC-1 (UM-SCC-1) cell line was obtained from the University of Michigan Cancer Research Laboratory, and CAL-27 and SCC-4 cells were obtained from the American Type Culture Collection (Manassas, Va.). SCC-1 and CAL-27 cells were cultured in DMEM media, whereas SCC-4 cells were grown in 1:1 Hams F-12 DMEM media. All media was supplemented with 10% fetal bovine serum (HyClone, Logan, Utah), 1.2% sodium bicarbonate, and 5000 units/ml penicillin, 5 μg/ml streptomycin and 10 μg/ml neomycin. OGF was purchased from Sigma-Aldrich (St. Louis, Mo.), dissolved in sterile water, and used at a final concentration of 10^−6 M.
Cell growth and flow cytometry. For growth curves, cells were seeded in 6-well plates at an initial density of ˜2×10^5 cells/well. Fresh media and OGF were added 24 h after initial seeding, and media and OGF were replaced daily. At appropriate times, the cells were washed with PBS, trypsinized, and viable cell numbers were counted by trypan blue exclusion using a hemacytometer.

SCC-1 cells [2] = assay: siRNA knockdown of OGFr, growth of SCC-1 cells; assay type: cell-based, human; details: 10^-6 M; for depression of growth: 96 h
Method: siRNA knockdown of OGFr. […] For transfection, 5×10^4 cells per well were seeded in 6-well plates containing 1 ml of serum-containing media without antibiotics. In each well, 20 nM OGFr-siRNA or control siRNA solutions in serum-free media were added. Cells were incubated for 4 h at 37° C. prior to the addition of OGF. Cultures were incubated an additional 20 h, and then 1 ml fresh complete media either lacking or containing OGF was added. […] Two independent experiments were conducted. The control siRNAs were purchased from Ambion.

BxPC-3 cells = assay: Flow cytometry cell cycle distribution, synchronized BxPC-3 cells; assay type: cell-based, human; details: 10^-6 M OGF, 21 hours
Method: For flow cytometry, cells were synchronized with 67 ng/ml nocodazole (Sigma-Aldrich) for 24 hours, followed by three washes with complete media. Cells were released from growth arrest by addition of complete media or OGF supplemented complete media. Synchronized cells were treated with 10^-6 M OGF for 21 hours, harvested with 0.25% trypsin-EDTA (Mediatech, Herndon, Va.) and fixed with 70% ethanol at −20° C. for up to 7 days before DNA analysis.
DNA content was obtained by incubating cells in PBS containing propidium iodide (0.1 mg/ml) and RNase A (0.02 mg/ml) for 15 minutes at 220 C. Fluorescence was measured and analyzed using a BD Biosciences FACScan flow cytometer (San Diego, Calif.) and Modfit Software (Topsham, Me.).

p21 = assay: Western blot of p21 in PANC-1 cells; assay type: cell-based, human; details: synchronized PANC-1 cells, 6 hours
Method: (§1) Human pancreatic cancer cell lines BxPC-3, PANC-1, and Capan-2 were obtained from the American Type Culture Collection (Manassas, Va.), and cultured in RPMI, Dulbecco's Modified Medium, or McCoy's 5A medium, respectively. All media were supplemented with 10% fetal bovine serum, 1.2% sodium bicarbonate, and 0.25% antibiotics (5000 units/ml penicillin, 5 μg/ml streptomycin and 10 μg/ml neomycin). OGF was purchased from Sigma-Aldrich (St. Louis, Mo.), dissolved in sterile water, and used at a final concentration of 10^−6 M.
Synchronized cells (2×10^6) from each treatment were solubilized in 200 μl RIPA buffer (1×PBS, 10 μM IGEPAL, 1 mg/ml SDS, 5 mg/ml deoxycholic acid), containing protease and phosphatase inhibitors (2 μg/ml aprotinin, 3 mg/ml phenylmethyl sulfonyl fluoride, 1 mM sodium orthovanidate, 1 μM okadaic acid). Total protein concentrations were measured using the DC protein assay kit (Bio-Rad Laboratories, Hercules, Calif.). Equal amounts of protein (40 μg) were subjected to 10% SDS-PAGE followed by transfer of proteins onto polyvinylidene difluoride (Millipore, Billerica, Mass.) using standard protocols.
The p21-targeted siRNAs were obtained from Santa Cruz Biotechnology, and negative control siRNAs were purchased from Ambion (Ambion, Inc., Austin, Tex.). For transfection, 2×10^5 cells per well were seeded in 6-well plates containing 1 ml of media without antibiotics. […]

PANC-1 cells = assay: Growth curves of PANC-1 cells transfected with p21 siRNA or negative control siRNA; assay type: cell-based, human; details: for decrease of growth: PANC-1 cells transfected with negative control siRNAs
Method: as §1
(§2) The p21-targeted siRNAs were obtained from Santa Cruz Biotechnology, and negative control siRNAs were purchased from Ambion (Ambion, Inc., Austin, Tex.). For transfection, 2×10^5 cells per well were seeded in 6-well plates containing 1 ml of media without antibiotics. For each well, 1 μl of siRNA stock (20 μM) was mixed with 175 μl of serum-free media. Two μl of Oligofectamine reagent (Invitrogen, Carlsbad, Calif.) was added to prewashed cells in each well, making the final concentration for siRNA approximately 20 nM. Cells were incubated for 4 hours at 37° C. prior to the addition of OGF. Eighteen hours later, 1 ml fresh complete media with or without OGF was added to the cultures; media and OGF were replaced daily. At the indicated time points, cells were collected for growth curves or Western blotting.

Capan-2 cells = assay: Growth curves of Capan-2 cells transfected with p21 siRNA or negative control siRNA; assay type: cell-based, human
Method: as §1, §2

[3] = tested on: Normal Human Neo-Epidermal Keratinocyte cells (NHEK); assay: Growth of NHEK cells; assay type: cell-based; details: 10^-6 M OGF
Method: OGFr is required for OGF action on growth. Normal Human Neo-Epidermal Keratinocyte cells (NHEK) were transfected with OGFr siRNAs or control siRNAs for 72 h in the presence of 10^−6 M OGF, 10^−6 M NTX, or sterile water. Cells were harvested at 72 h and counted with a hemacytometer. Data represent means±SE for 2 independent experiments. Cell numbers differed from wt cells or cells transfected with the negative control siRNA and treated with sterile water at p<0.05 (*), p<0.01 (**), or […]. […] At 72 hr, OGF-treated cultures had 20% fewer cells and at 96 hr, OGF-treated cultures had 32% fewer cells than sterile-water treated control cultures.

[4] = tested on: human umbilical vein endothelial cells (HUVEC); assay: Growth of HUVEC; assay type: cell-based
Description: Another normal cell line, human umbilical vein endothelial cells (HUVEC) has been subjected to OGF exposure. […] At 96 hr, OGF-treated cultures had 45.9% fewer cells than normal cultures.

With [Met^5]-enkephalin [OGF] the “Cell number compared to controls” value (SCC-1 cells [1]; 72 h) was 87.5%, the “Cell number compared to controls” value (SCC-1 cells [1]; 96 h) was 59.0% and the mean doubling time (SCC-1 cells [1]; linear regression of growth data) was “approximately 41.3 h”. For the same substance, the “effect on growth of OGFr-siRNA cultures” value (SCC-1 cells [2]; SCC-1 cells subjected to OGFr-siRNA) was “no further effects”, the depression of growth (SCC-1 cells [2]; control siRNA-treated SCC-1 cells) was 46% and the depression of growth (SCC-1 cells [2]; wt SCC-1 cells) was 29%. The “cells in S phase” value (BxPC-3 cells) was 28.0%, the “cells in the G2/M phase” value (BxPC-3 cells) was 2.9% and the “percentage of cells in the G0/G1 phase” value (BxPC-3 cells) was 69.1%. The “p21 expression relative to control cells” value (p21) was “increased p21 expression”, the decrease of growth (PANC-1 cells; 72 hours) was 34.1% and the decrease of growth (PANC-1 cells; 96 hours) was 35.5%. The “effect on growth of cells lacking p21” value (PANC-1 cells; PANC-1 cells transfected with p21 siRNA) was “no inhibitory effect”, the effect on growth (Capan-2 cells; Capan-2 cells transfected with negative control siRNA, 48, 72, and 96 hours) was “did depress growth” and the “effect on growth of cells lacking p21” value (Capan-2 cells; Capan-2 cells transfected with p21 siRNA) was “no inhibitory action”. For the same substance, the “fewer cells than control cultures” value ([3]; 72 hr) was 20%, the “fewer cells than control cultures” value ([3]; 96 hr) was 32% and the doubling time ([3]; growth curve data) was 57.1 h. The “cell number relative to control cultures” value ([4]; 10^-6 M OGF, 48, 72, and 96 hr) was “significant (p<0.01) reductions” and the “fewer cells than normal cultures” value ([4]; 10^-6 M OGF, 96 hr) was 45.9%.
